# Measurements: patent publication US4056626A, “Pharmaceutical composition containing benzofuran derivative” (Kakenyaku Kako Co., Ltd., priority 1971, dated 1977)
# Where “and” joins values, the source holds several entries; their conditions need not be identical. Equal values may be shown once. Read-outs that look alike come from different tables or passages of the source.
# What was measured:
# [1] = system: isoproterenol antagonism concerning myocardial contractile force, heart rate and diastolic blood pressure; test: isoproterenol antagonism in anesthetized dogs; type: in vivo; conditions: for ED50: Canis lupus familiaris, iv; for Inhibition of decrease in diastolic blood pressure, relative activity / Inhibition of increase in heart rate, relative activity / Inhibition of increase in myocardial contractile force, relative activity: activity of Propranolol is 1
# Experimental: Male and female dogs weighing 9 kg. to 20 kg. were employed. The dogs were anesthetized with barbital sodium (30 mg./kg.) given intraperitoneally. The compounds to be tested and isoproterenol were administered in femoral vein through a canula.
# The maximum increase was adopted as the increase in myocardial contractile force. The increase after 1 minute from the administration of isoproterenol was adopted as the increase in heart rate. The maximum decrease was adopted as the decrease in diastolic blood pressure. Then, the compounds to be tested were administered in a dose of 0.01 to 100 μg./kg. After an interval of 2 minutes, isoproterenol was again administered in a dose of 0.3 μg./kg. After the second administration of isoproterenol, the maximum increase in myocardial contractile force, the increase after 1 minute from the administration of isoproterenol in heart rate and the maximum decrease in diastolic blood pressure were again determined.
# [2] = system: isoproterenol antagonism concerning myocardial contractile force and heart rate in isolated guinea-pig atria; test: isoproterenol antagonism in isolated guinea-pig atria; conditions: for Inhibition of increase in heart rate ED 50 / Inhibition of increase in myocardial contractile force ED 50: 37° C., isoproterenol 1 × 10^-8 g./ml., 50% inhibition; for Inhibition of increase in heart rate, relative activity / Inhibition of increase in myocardial contractile force, relative activity: activity of Propranolol is 1
# Experimental: Isolated guinea-pig atrium was mounted in a chamber containing Ringer-Lockesolution (37° C.), through which a mixed gas of 95% O2 and 5% CO2 was continuously bubbled. Isoproterenol was added to the solution at a concentration of 1 × 10^-^8 g./ml.
# [3] = in vivo; conditions: mouse, iv
# [4] = system: tachycardia in hyperthyroidism; test: clinical study: tachycardia in hyperthyroidism, single administration; type: in vivo, patients; conditions: Mercazol reference, oral 30 mg./day, 14 days
# Experimental: A. A therapeutic effect of the present pharmaceutical composition to tachycardia in hyperthyroidism in case of its signle administration was investigated.
# To 12 patients of hyperthyroidism shown in Table VI was orally administered the active ingredient, 2-acetyl-7-(2-hydroxy-3-isopropylaminopropoxy)benzofuran hydrochloride, contained in the capsules obtained in Example 47 in a dose of 30 mg./day (3 times per day) for 14 days. The treatment evaluation was determined according to the following standard:
# For reference, a therapeutic effect of an antihyperthyroidism medicament to tachycardia in hyperthyroidism in case of its single administration was investigated.
# To 12 patients of hyperthyroidism shown in Table VII was orally administered Mercazol which has been widely employed as an antihyperthyroidism medicament in a dose of 30 mg./day for 14 days.
# [5] = anesthetized dogs, femoral vein, isoproterenol 0.3 μg./kg., 50% inhibition, read-out: Inhibition of decrease in diastolic blood pressure ED50
# [6] = anesthetized dogs, femoral vein, isoproterenol 0.3 μg./kg., 50% inhibition, read-out: Inhibition of increase in heart rate ED50
# [7] = anesthetized dogs, femoral vein, isoproterenol 0.3 μg./kg., 50% inhibition, read-out: Inhibition of increase in myocardial contractile force ED50
Structure (SMILES),"ED50 [1, 5] [µg/kg]","ED50 [1, 6] [µg/kg]","ED50 [1, 7] [µg/kg]","Inhibition of decrease in diastolic blood pressure, relative activity ([1]; anesthetized dogs)","Inhibition of increase in heart rate, relative activity ([1]; anesthetized dogs)","Inhibition of increase in myocardial contractile force, relative activity ([1]; anesthetized dogs)",Inhibition of increase in heart rate ED 50 [2] [µg/mL],Inhibition of increase in myocardial contractile force ED 50 [2] [µg/mL],"Inhibition of increase in heart rate, relative activity [2]","Inhibition of increase in myocardial contractile force, relative activity [2]",LD50 at 24 h [3] [µg/kg],"Pulse rate after treatment, average ([4]; 12 patients, average before treatment 111.3, standard deviation 8.6, in beats/min (unit assumed))","Pulse rate difference, average ([4]; 12 patients, standard deviation printed 0.6) [beats/min]","Pulse rate difference ([4]; before minus after, per patient, in beats/min (unit assumed))","Pulse rate after treatment ([4]; per patient, in beats/min (unit assumed))",ED50 ([1]; read-out: Inhibition of decrease in diastolic blood pressure ED50) [µg/kg],ED50 ([1]; read-out: Inhibition of increase in heart rate ED50) [µg/kg],ED50 ([1]; read-out: Inhibition of increase in myocardial contractile force ED50) [µg/kg]
"CC(=O)c1cc2cccc(OCC(O)CNC(C)(C)C)c2o1 (stereo not shown) [Compound No. 4, 2-acetyl-7-(2-hydroxy-3-tert.-butylaminopropoxy)benzofuran]",0.72,3.5,6.33,1.3,3.0,1.5,0.033,0.004,3.0,2.5,45000 to 55000,–,–,–,–,–,–,–
"CC(=O)c1cc2cccc(OCC(O)CNC(C)C)c2o1 (stereo not shown) [Compound No. 3, 2-acetyl-7-(2-hydroxy-3-isopropylaminopropoxy)benzofuran]",0.18,0.52,3.4,5.3,21.0,2.8,0.04,0.005,2.5,2.0,100000 to 105000,–,–,–,–,–,–,–
"CC(=NC(C)C)c1cc2c(OCC(O)CNC(C)C)cccc2o1 (stereo not shown) [Compound No. 6, 2-(1-isopropyliminoethyl)-4-(2-hydroxy-3-isopropylaminopropoxy)benzofuran]",–,0.21,5.93,30.2,50.0,1.6,0.014,0.008,7.0,1.3,45000 to 50000,–,–,–,–,–,–,–
"CCC(C)N=C(C)c1cc2cccc(OCC(O)CNC(C)CC)c2o1 (stereo not shown) [Compound No. 9, 2-(1-sec.-butyliminoethyl)-7-(2-hydroxy-3-sec.-butylaminopropoxy)benzofuran]",0.16,0.53,0.73,6.0,20.0,13.1,0.06,0.004,1.6,2.5,75000 to 80000,–,–,–,–,–,–,–
"CC(=NC(C)C)c1cc2cccc(OCC(O)CNC(C)C)c2o1 (stereo not shown) [Compound No. 1, 2-(1-isopropyliminoethyl)-7-(2-hydroxy-3-isopropylaminopropoxy)benzofuran]",0.3,0.42,0.6,3.1,25.0,15.9,0.014,0.0017,7.1,5.9,65000 to 70000,–,–,–,–,–,–,–
"Cn1cc[nH]c1=S [Mercazol, reference compound]",–,–,–,–,–,–,–,–,–,–,–,100.2,12,20 and 22 and 10 and 14 and 12 and 4 and 0,90 and 110 and 100 and 108 and 116,–,–,–
"CCC(C)NCC(O)COc1cccc2cc(C(C)=O)oc12 (stereo not shown) [Compound No. 7, 2-acetyl-7-(2-hydroxy-3-sec.-butylaminopropoxy)benzofuran]",2.35,7.07,5.59,0.4,1.5,1.7,0.067,0.0048,1.5,2.0,75000 to 80000,–,–,–,–,–,–,–
"CCc1cc2c(C(C)=O)ccc(OCC(O)CNC(C)C)c2o1 (stereo not shown) [Compound No. 8, 2-ethyl-4-acetyl-7-(2-hydroxy-3-isopropylaminopropoxy)benzofuran]",1.9,0.3,6.4,0.5,35.0,1.5,0.053,0.0091,1.9,1.1,120000 to 125000,–,–,–,–,–,–,–
"CC(=O)c1cc2c(OCC(O)CNC(C)(C)C)cccc2o1 (stereo not shown) [Compound No. 2, 2-acetyl-4-(2-hydroxy-3-tert.-butylaminopropoxy)benzofuran]",0.92,35.2,8.62,1.0,0.3,1.1,0.045,0.017,2.2,0.6,35000 to 40000,–,–,–,–,–,–,–
"CCC(C)N=C(C)c1cc2c(OCC(O)CNC(C)CC)cccc2o1 (stereo not shown) [Compound No. 10, 2-(1-sec.-butyliminoethyl)-4-(2-hydroxy-3-sec.-butylaminopropoxy)benzofuran]",–,0.21,3.95,23.5,50.0,2.4,0.04,0.0059,2.5,1.7,60000 to 65000,–,–,–,–,–,–,–
"CC(C)NCC(O)COc1cccc2ccccc12 (stereo not shown) [Propranolol, reference compound]",–,–,–,–,–,–,–,–,–,–,–,–,–,–,–,0.94,10.6,9.5
"CCOC(=O)c1cc2cccc(OCC(O)CNC(C)C)c2o1 (stereo not shown) [compound 5, 2-carbethoxy-7-(2-hydroxy-3-isopropylaminopropoxy)benzofuran]",1.57,0.21,9.5,0.6,50.0,1.0,0.029,0.0055,3.5,1.8,50000 to 55000,–,–,–,–,–,–,–
